Laboratory results published in patent US9181286B2, “Pantothenate derivatives for the treatment of neurologic disorders” (Retrophin, Inc., priority 2012, dated 2015).

Tests used:
[1] = tested on: Escherichia coli K-12 strain SJ16; experiment: SJ16 recovery (in vitro bacterial testing, growth without pantothenate); format: cell-based; details: test compound 8 μM in growth medium, 37° C., 18 hours, solid medium without calcium pantothenate (non-permissive)
Method: Thus, it serves as a useful assay in determining whether a compound can rescue an organism deficient in PANK, the cause of PKAN. Compounds of the present invention were tested for toxicity and for the ability to support growth of Escherichia coli K-12 strains SJ16 (see, e.g., Jackowski et al., J. Bacteriol., 148, 926-932, 1981) and DV70 (see, e.g., Vallari et al., J. Bacteriol., 169, 5795-5800, 1987) under permissive and non-permissive conditions. The test compound in a solvent (dimethylsulfoxide, DMSO) was added to growth medium at a final concentration of 8 μM. Solvent alone (DMSO) was added to the growth medium at a final concentration ≦0.1% as a control.
Strain SJ16 was grown at 37° C. for 18 hours on a solid medium containing agar (1.5%), M9 minimal essential salts (see, Miller, Experiments in Molecular Genetics. Cold Spring Harbor Laboratory, Cold Spring Harbor, N.Y., 1972), glucose (0.4%), methionine (50 μg/ml), and with (permissive) or without (non-permissive) calcium pantothenate (1 μM). Lack of growth with calcium pantothenate supplementation indicated toxicity. Growth without calcium pantothenate supplementation indicated the ability of the bacteria to metabolize the compound to yield pantothenate or β-alanine.

HEK 293T cells = experiment: Acetyl-CoA level in HEK 293T cells by mass spectrometry; format: cell-based, human; details: 200 μM compound, p<0.0005
Method: FIG. 1 is a bar graph showing the levels of acetyl CoA in human HEK 293T cells, as measured by mass spectrometry, following treatment with the compounds of Examples 2, 5, 7 and 12.
The compounds of Examples 2, 5, 7 and 12 were tested in immortalized human cells (HEK 293T). The amount of acetyl-CoA (the downstream result of PANK) following administration of the compounds of Examples 2, 5, 7 and 12 were measured by mass spectrometry.
Treatment of HEK 293T cells with 20 μM of the compound of Example 7 afforded a 38% increase in acetyl CoA over baseline (p<0.005).

Pank1−/− mice = experiment: Liver Coenzyme A (mBBr-CoA, HPLC) in Pank1−/− mice; format: in vivo
Method: Compounds of the invention were tested for efficacy in Pank1^−/− mice (strain 129SvJ×C57BL/6J background) which were compared with age-matched Pank1^+/+ (strain 129SvJ×C57BL/6J) littermates, ages 8-12 weeks. Each mouse was identified with a coded ear tag and weighed on the first day of testing. Each compound was administered to 4-5 mice by intraperitoneal injection at a dose of 1.2 μmoles/g body weight in 5 μL dimethylsulfoxide once daily for 5 days, and mice were then fasted overnight, weighed and euthanized. Untreated mice received 5 μL dimethylsulfoxide once daily for 5 days and then were fasted overnight prior to weighing and euthanasia. Livers were excised from each mouse, aliquots were snap-frozen in liquid nitrogen, and stored at −80° C. Within 7 days, liver samples were thawed on ice, weighed and analyzed for coenzyme A content as described below. Efficacy was indicated by a statistically significant increase in the liver Coenzyme A levels in the Pank1^−/− mice as compared to the liver from untreated Pank1^−/− mice and by equivalence in comparison with Coenzyme A levels in untreated Pank1^+/+ mice.
CoA Measurements: Extraction of Fibroblasts and Liver and Derivatization of Coenzyme A Prior to High Pressure Liquid Chromatography (HPLC) […]
Coenzyme A Quantification by HPLC […]

## COC(=O)CCNC(=O)[C@H](O)C(C)(C)COP(=O)(N[C@@H](C)C(=O)OC)Oc1ccccc1 (stereo partly drawn) [Example 2, methyl 3-((2R)-2-hydroxy-4-(((((S)-1-methoxy-1-oxopropan-2-yl)amino)(phenoxy)phosphoryl)oxy)-3,3-dimethylbutanamido)propanoate]
[1]
  SJ16 Recovery: Yes
HEK 293T cells
  increase in acetyl CoA over baseline: 42%
Pank1−/− mice; PANK knockout mice, liver mBBr CoA, FIG. 2, compared with normal mice
  levels of CoA in PANK knockout mice (in words): restored levels of CoA to those seen in normal mice
Pank1−/− mice; pank1 KO mice, intraperitoneal 1.2 μmoles/g body weight once daily for 5 days, fasted overnight, liver, n=5
  pmol mBBR-CoA/mg Liver, Mean: 563.358 pmol mBBR-CoA/mg Liver
